Experimental data reported in EP0829477A1, “NOVEL PHYSIOLOGICALLY ACTIVE NA23063 ANALOGUES, PROCESS FOR PRODUCING THE SAME AND USE OF THE SAME” (NIPPON KAYAKU KABUSHIKI KAISHA, priority 1995, dated 1996).

What was measured:
[1] = tested on: Bovine Phosphodiesterase; experiment: Phosphodiesterase inhibiting activity (cAMP substrate, remaining cAMP measured by HPLC); type: biochemical; conditions: for IC50: inhibition of phosphodiesterase, from Table 2 data, read-out: IC 50 values
Method: Fifity g of the respiratory smooth muscle of a sacrificed cow was cut into pieces with scissors and a knife, then suspended in 2 mM EDTA-containing 20 mM Tris buffer (pH 7.4) of 5 times by volume the pieces, and homogenized with a polytron homogenizer to prepare a crude phosphodiesterase liquid. This was centrifuged at 10,000 x g for 20 minutes to collect the supernatant, which is a soluble, crude phosphodiesterase liquid. This was put into a Q-Sepharose fast-flow column (100 ml), washed with a buffer, and then eluted with sodium acetate having a gradient concentration of from 50 mM to 1 M. The phosphodiesterase-containing active fraction eluted with 0.7 M sodium acetate was collected.
To determine its phosphodiesterase activity, the enzyme was reacted with a substrate, 3',5'-cyclic adenosine monophosphate (cAMP, manufactured by Sigma Co. in US). After the reaction, the remaining cAMP was measured through high-performance liquid chromatography.
0.02 mg/ml of cAMP, 2.5 mM dithiothreitol, 6 mM magnesium chloride, 50 mM Tris buffer (pH 8.0), 1 µl of the phosphodiesterase liquid prepared above, and a varying amount of the compound of the invention were put into plastic tubes having a volume of 0.3 ml, to which was added water to have a final volume of 200 µl. The mixture was stirred, and incubated at 37°C for 60 minutes. 20 µl of an aqueous solution of 200 mM tetraethylenediamine was added to each tube to stop the reaction. 20 µl of the resulting reaction mixture was subjected to high-performance liquid chromatography (ODS column of 3.9 mm⌀ x 150 mm, manufactured by Waters Co. in US), through which the remaining cAMP was measured. From the data, obtained was the activity of the compound of the invention of inhibiting the enzyme phosphodiesterase, as in Table 2.

[2] = tested on: bronchial smooth muscle; experiment: Inhibition of contraction of bronchial smooth muscle (histamine-contracted tracheal strips in an organ bath); parameters: species or system Hartley guinea pigs; conditions: 10 µg/ml; contraction with 10 µM histamine = 100 %, relaxation with papaverine = 0 %
Method: The tracheae were taken out of male Hartley guinea pigs having a body weight of from 400 to 500 g. These were cut off at the cartilage opposite to the smooth muscle, and sliced into small pieces having a width of 1 mm. Five of these pieces were bound with silk thread into one bundle, of which the both ends were ligated with machine cotton. This was then suspended in an organ bath with applying thereto a tension of 0.5 g. The temperature of the bath was 37°C, and the bath contained a nutrient liquid of Krebs-Hanseleit buffer (118 mM NaCl, 4.6 mM KCl, 1.1 mM MgSO4·7H2O, 1.8 mM CaCl2·2H2O, 24.9 mM NaHCO3, 1.0 mM KH2PO4·2H2O, 11.1 mM glucose). To the nutrient liquid, added was 5 µM indomethacin. The bath was well aerated with a mixed gas of 95 % O2 + 5 % CO2. The suspended tissue was incubated in the organ bath for about 2 hours for habituation in the external environment. Then, this was contracted with 10 µM histamine. After the contraction was stabilized, NA23063D was added to the bath to have a concentration of 0.1, 0.3, 1.0, 3.0, 10 and 30 µg/ml. The reaction in the bath comprising the varying amount of NA23063D was continued until the relaxation of the tissue became stabilized. When no relaxation was admitted in 10 minutes after the addition of the chemical, NA23063D, the concentration of the chemical was increased to the next stage. […]

[3] = tested on: guinea pig oxyphiles; experiment: Inhibition of activation of oxyphiles (PAF-induced release of active oxygen, luminol chemiluminescence); type: cell-based, Hartley guinea pigs; conditions: Cavia porcellus, 5 min; PAF stimulation, chemiluminescence for 5 minutes; read-out: IC50 (x 10^-6 M)
Method: One mg of polymyxin B (manufactured by Sigma Co.) was intra-abdominally administered to Hartley guinea pigs (6-week age). The chemical was administered to the animals once a week, for 6 to 8 weeks. After the final administration of the chemical polymyxin B, 50 ml of PBS (phosphate-buffered saline) was injected into the abdomen of each guinea pig, and the abdominal cells were collected. These were centrifuged at 800 rpm for 5 minutes to collect the precipitate of abdominal infiltrated cells. The precipitated cells were suspended in 1 ml of 40 % Ficol solution (40 % Ficol (manufactured by Pharmacia Co.) in HBSS (Hanks' […] salt solution)), and stratified over a discontinuous density gradient of Ficol (40 to 90 %). This was centrifuged at 1500 rpm for 40 minutes to collect the oxyphile fraction. This operation generally produced oxyphiles having a purity of 99 % or higher. The cells were washed two times with an RPMI1640 medium (0.2 % BSA (bovine serum albumin), manufactured by Boehringer Mannheim Co.), then suspended to have a predetermined cell concentration, and used in the intended experiments. (B) Effect of Inactivating Oxyphiles (Effect of inhibiting the activity of guinea pig oxyphiles to release active oxygen):
2 µl of each chemical to be tested and 180 µl of the cell suspension were added to each well of a 96-well multiwell plate (white plate for chemiluminometry) which had been previously kept at 37°C, and kept therein at 37°C for 10 minutes. After thus kept, 20 µl of PAF (platelet activating factor) (x -10^-6 M) and 20 µl of a luminol solution were added thereto, and immediately the intensity of chemiluminescence of the system was measured, using […]. The data of chemiluminescence for 5 minutes were obtained, from which was calculated the 50 % inhibition concentration of the compound tested (IC50).

[4] = tested on: respiratory tract resistance; experiment: Inhibition of immediate allergic respiratory stenosis in ovalbumin-sensitized asthmatic animal models; type: in vivo, Brown-Norway (BN) rats; conditions: intravenous administration of 30 mg/kg, rat models, relative to control maximum resistance after antigen
Method: An antigen ovalbumin (OA) was administered to male Brown-Norway (BN) rats to prepare actively-sensitized animal models. To sensitize the animals, 1 ml of the antigen solution (100 mg/ml of Al(OH)3 and 1 mg/ml of OA in aqueous 0.9 % NaCl solution) was subcutaneously administered to the back of each rat. On the other hand, inactivated cells of Bordetella pertussis were suspended in an aqueous solution of 0.9 % NaCl to have a concentration of 1.0 x 10^10 cells/ml. 0.25 ml of the cell suspension was intra-abdominally administered to each rat along with the antigen sensitization. The administration was repeated three times in all, on the 1st, 7th and 14th days. […]
Those actively-sensitized BN rats were anesthetized with sodium pentobarbiturate (50 mg/kg, i.p.), into which was inserted a polyvinyl chloride tube cannula through the respiratory tract. Each rat was purged with air through the cannula, and the respiratory tract resistance was monitored. […] In addition, an additional cannula was inserted into the left common carotid artery of each rat, through which the blood pressure and the heart beat of the rat being tested were monitored. […] On the basis of the time (0, zero) at which the antigen was challenged, the variation (increase or decrease) in the respiratory tract resistance of each rat was recorded at regular intervals before and after the administration of the antigen. […]

[5] = Solubility of the isolated substances in solvents; type: physicochemical; conditions: qualitative; for Solubility: various solvents
Method: These pure NA23063A, NA23063B1, NA23063B2, NA23063C and NA23063D were tested for their appearance, molecular weight, solubility, Rf value in silica gel thin-layer column chromatography, UV absorption spectrum, IR absorption spectrum, ^1H-NMR spectrum, and ^13C-NMR spectrum. The physicochemical properties of NA23063A, B1, B2, C and D thus obtained have been shown hereinabove.

| Solubility in dimethylsulfoxide (DMSO) [5] | Compound | Inhibiting Activity (%) ([1]; Concentration 0.39 µg/ml) | Inhibiting Activity (%) ([1]; Concentration 0.78 µg/ml) | Inhibiting Activity (%) ([1]; Concentration 1.56 µg/ml) | Inhibiting Activity (%) ([1]; Concentration 3.13 µg/ml) | Inhibiting Activity (%) ([1]; Concentration 6.25 µg/ml) | IC50 [1] | relaxation of the bronchial smooth muscle [2] | IC50 [3] | % inhibition (decrease in the respiratory tract resistance) [4] | Solubility [5] |
| --- | --- | --- | --- | --- | --- | --- | --- | --- | --- | --- | --- |
| soluble | O=c1c(-c2ccc(O)c(-c3cc(-c4coc5cc(O)cc(O)c5c4=O)ccc3O)c2)coc2cc(O)ccc12 [NA23063D] | 18.9% | 30.7% | 34.6% | 44.8% | 61.0% | 7.9 µM | 61% | 1.1 µM | 54% | soluble in lower alcohols, acetone, ethyl acetate and dimethylsulfoxide, but insoluble in hexane, petroleum ether and water |
| – | O=c1c(-c2ccc(Oc3cc(-c4coc5cc(O)cc(O)c5c4=O)ccc3O)cc2)coc2cc(O)cc(O)c12 [NA23063A] | – | 43.5% | 57.8% | 60.5% | 79.5% | 2.1 µM | – | 0.1 µM | – | soluble in lower alcohols, acetone and ethyl acetate, but insoluble in hexane, petroleum ether and water |
| – | O=c1c(-c2ccc(O)c(Oc3ccc(-c4coc5cc(O)cc(O)c5c4=O)cc3)c2)coc2cc(O)ccc12 [NA23063B2] | 17.5% | 28.1% | 38.2% | 56.3% | 64.9% | 4.9 µM | – | – | – | soluble in lower alcohols, acetone, ethyl acetate and dimethylsulfoxide, but insoluble in hexane, petroleum ether and water |
| – | O=c1c(-c2ccc(O)c(-c3cc(-c4coc5cc(O)cc(O)c5c4=O)ccc3O)c2)coc2cc(O)cc(O)c12 [NA23063C] | 26.4% | 57.7% | 66.5% | 77.6% | 83.8% | 1.3 µM | – | 0.32 µM | – | soluble in lower alcohols, acetone, ethyl acetate and dimethylsulfoxide, but insoluble in hexane, petroleum ether and water |
| – | O=c1c(-c2ccc(Oc3cc(-c4coc5cc(O)cc(O)c5c4=O)ccc3O)cc2)coc2cc(O)ccc12 [NA23063B1] | 17.5% | 28.1% | 38.2% | 56.3% | 64.9% | 4.9 µM | – | – | – | soluble in lower alcohols, acetone, ethyl acetate and dimethylsulfoxide, but insoluble in hexane, petroleum ether and water |
